Assay [1] addresses EGFR (Homo sapiens, UniProt P00533). The experiment in a line: EGFR kinase inhibition assay. The assay is classed as biochemical.
Assay [2] deals with T1, EphB4 (Homo sapiens, UniProt P54760).
T1 sequence (P54760 16-987): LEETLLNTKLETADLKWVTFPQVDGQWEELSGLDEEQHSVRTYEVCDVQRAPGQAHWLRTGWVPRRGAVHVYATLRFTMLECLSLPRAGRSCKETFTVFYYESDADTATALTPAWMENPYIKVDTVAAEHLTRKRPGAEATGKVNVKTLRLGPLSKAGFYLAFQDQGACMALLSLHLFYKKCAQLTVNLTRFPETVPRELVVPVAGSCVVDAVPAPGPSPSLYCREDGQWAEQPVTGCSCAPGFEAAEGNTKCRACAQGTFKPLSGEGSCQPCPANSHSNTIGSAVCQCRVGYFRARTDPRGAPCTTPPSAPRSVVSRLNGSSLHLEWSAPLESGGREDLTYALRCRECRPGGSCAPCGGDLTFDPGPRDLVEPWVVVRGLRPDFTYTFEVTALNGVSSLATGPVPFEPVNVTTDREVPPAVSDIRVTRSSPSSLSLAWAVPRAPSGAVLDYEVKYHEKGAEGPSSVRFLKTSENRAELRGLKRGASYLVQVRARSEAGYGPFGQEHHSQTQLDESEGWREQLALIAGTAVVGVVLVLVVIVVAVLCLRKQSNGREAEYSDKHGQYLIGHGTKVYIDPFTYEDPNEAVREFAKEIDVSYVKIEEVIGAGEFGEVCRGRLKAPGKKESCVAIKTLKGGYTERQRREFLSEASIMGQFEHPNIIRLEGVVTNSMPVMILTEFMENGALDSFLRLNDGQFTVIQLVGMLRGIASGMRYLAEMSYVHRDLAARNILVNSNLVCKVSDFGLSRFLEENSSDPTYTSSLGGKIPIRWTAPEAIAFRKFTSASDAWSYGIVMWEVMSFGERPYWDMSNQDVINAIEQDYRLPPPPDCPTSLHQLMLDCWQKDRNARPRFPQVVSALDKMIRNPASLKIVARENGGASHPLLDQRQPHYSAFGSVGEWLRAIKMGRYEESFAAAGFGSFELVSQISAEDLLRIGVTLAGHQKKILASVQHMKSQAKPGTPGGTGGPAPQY
Kind of assay: EphB4 kinase inhibition assay. The format is biochemical. In a few lines: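 ATP near each kinase's KM; 10-point dose-response fitted to a four-parameter equation for IC50. Formats: γ33P-ATP transfer to plate-coated substrate (1.5-2.5 h, ambient, scintillation), luciferase-coupled ATP-consumption read-out (2-4 h, 25-45% ATP consumed), or AlphaScreen with biotinylated poly(Glu,Tyr) 4:1 (1 h).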

Assay [3] has as its target T2, flt-3 (Homo sapiens, UniProt P36888).
T2 construct: baculovirus expressed human Flt-3 kinase domain R571-S993
T2 sequence (P36888 571-993): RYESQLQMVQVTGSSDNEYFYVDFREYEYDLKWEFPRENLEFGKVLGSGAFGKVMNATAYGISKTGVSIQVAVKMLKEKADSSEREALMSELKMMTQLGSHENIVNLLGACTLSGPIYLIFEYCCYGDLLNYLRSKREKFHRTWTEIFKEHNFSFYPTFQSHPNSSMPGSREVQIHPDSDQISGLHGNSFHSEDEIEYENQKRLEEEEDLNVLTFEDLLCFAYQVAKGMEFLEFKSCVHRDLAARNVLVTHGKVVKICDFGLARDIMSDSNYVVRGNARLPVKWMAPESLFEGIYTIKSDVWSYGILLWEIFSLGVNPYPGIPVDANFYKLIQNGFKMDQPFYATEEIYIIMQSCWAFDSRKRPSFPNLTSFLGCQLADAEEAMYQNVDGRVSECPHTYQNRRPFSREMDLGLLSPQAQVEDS
The experiment in a line: flt-3 Luciferase-Coupled Chemiluminescent Kinase assay (LCCA). The format is biochemical. In a few lines: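 Baculovirus-expressed human Flt-3 kinase domain (R571-S993, 5 nM) was reacted with 5 μM ATP and 3 μM poly-EY in Tris pH 7.5 buffer with MgCl2/MnCl2 for 3 h at ambient temperature. Remaining ATP was read by luciferase-luciferin chemiluminescence, with ATP consumption standardized to 25-45%, for IC50.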

For assay [4], the target named is c-Kit (Homo sapiens, UniProt P10721). The experiment in a line: c-Kit biochemical assay (AlphaScreen). The procedure, abridged: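 Kinase, compound, ATP and biotinylated poly(Glu,Tyr) 4:1 reacted 1 hr at ambient temperature; quenched with EDTA buffer (pH 7.4) containing streptavidin donor and anti-phosphotyrosine PY100 acceptor beads, incubated 16 hr, then AlphaScreen signal read to give IC50.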

Experimental findings from patent publication US8710038B2, “Pyrazole kinase modulators and methods of use” (Exelixis, Inc., priority 2004, dated 2014) are described below.

EGFR, sequence (P00533 25-1210, species assumed): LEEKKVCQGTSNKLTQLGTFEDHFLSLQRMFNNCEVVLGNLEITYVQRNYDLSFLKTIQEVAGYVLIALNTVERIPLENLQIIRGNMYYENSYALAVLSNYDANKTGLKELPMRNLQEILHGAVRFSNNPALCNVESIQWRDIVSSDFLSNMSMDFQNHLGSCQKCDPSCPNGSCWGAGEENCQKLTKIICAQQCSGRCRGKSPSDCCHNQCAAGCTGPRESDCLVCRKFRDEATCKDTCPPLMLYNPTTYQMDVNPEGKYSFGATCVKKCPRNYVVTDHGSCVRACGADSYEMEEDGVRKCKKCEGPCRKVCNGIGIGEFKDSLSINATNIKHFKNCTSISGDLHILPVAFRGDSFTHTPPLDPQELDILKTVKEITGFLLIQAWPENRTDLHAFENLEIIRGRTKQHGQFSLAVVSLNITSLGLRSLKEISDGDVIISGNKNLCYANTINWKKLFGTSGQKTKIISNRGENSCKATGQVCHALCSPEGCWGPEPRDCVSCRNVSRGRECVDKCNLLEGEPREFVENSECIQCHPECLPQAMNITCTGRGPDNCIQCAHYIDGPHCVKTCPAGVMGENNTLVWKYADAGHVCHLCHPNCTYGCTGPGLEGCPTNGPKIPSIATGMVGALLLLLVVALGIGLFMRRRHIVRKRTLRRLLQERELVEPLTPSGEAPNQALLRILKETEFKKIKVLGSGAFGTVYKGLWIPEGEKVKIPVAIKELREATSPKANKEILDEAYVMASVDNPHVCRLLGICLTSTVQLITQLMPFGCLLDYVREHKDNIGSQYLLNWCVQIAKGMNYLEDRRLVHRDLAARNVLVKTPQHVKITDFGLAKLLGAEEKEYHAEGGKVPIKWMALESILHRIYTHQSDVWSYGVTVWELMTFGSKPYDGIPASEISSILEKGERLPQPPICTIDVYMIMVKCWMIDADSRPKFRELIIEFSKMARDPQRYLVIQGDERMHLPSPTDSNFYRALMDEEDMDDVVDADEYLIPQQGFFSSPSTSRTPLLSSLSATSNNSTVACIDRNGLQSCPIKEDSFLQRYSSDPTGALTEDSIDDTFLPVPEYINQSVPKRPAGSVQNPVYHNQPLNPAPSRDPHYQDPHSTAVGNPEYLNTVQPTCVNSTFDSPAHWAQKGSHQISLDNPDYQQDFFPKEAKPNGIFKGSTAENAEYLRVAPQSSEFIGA
c-Kit, sequence (P10721 26-976): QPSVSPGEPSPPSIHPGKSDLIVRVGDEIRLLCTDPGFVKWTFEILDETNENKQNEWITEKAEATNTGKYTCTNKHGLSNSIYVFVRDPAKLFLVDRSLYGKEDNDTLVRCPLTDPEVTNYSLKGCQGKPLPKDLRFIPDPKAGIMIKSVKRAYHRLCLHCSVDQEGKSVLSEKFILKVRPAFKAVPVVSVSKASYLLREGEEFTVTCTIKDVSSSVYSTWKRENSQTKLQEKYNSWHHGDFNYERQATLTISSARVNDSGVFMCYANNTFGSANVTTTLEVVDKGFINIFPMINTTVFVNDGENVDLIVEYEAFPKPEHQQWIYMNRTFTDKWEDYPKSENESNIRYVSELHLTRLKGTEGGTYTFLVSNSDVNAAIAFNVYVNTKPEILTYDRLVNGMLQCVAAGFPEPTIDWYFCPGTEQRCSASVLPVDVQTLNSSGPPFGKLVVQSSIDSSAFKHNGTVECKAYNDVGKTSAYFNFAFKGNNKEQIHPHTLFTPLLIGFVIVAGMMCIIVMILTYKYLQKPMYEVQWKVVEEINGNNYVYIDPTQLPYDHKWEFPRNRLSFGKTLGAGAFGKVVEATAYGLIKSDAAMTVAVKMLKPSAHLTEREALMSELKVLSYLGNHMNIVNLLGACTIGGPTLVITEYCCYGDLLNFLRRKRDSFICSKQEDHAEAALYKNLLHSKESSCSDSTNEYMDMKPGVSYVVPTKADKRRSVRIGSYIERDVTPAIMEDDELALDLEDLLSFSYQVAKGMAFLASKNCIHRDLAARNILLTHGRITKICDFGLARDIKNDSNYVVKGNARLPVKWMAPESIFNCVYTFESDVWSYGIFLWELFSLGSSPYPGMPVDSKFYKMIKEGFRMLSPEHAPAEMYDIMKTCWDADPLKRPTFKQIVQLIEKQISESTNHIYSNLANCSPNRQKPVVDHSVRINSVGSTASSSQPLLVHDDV

As usually defined, the IC50 is the concentration that gives 50% inhibition. Higher therefore signals weaker potency in that assay. As for `O=C(Nc1ccc(-c2cc(-c3ccccc3)n[nH]2)cc1)Nc1ccc(Cl)c(C(F)(F)F)c1` [Entry 50, N-[4-chloro-3-(trifluoromethyl)phenyl]-N′-[4-(3-phenyl-1H-pyrazol-5-yl)phenyl]urea], the 50% inhibitory concentration (IC50) in assay [1] was greater than 5000 nM; in assay [2], greater than 5000 nM; in assay [3] it was 50 to 500 nM; in assay [4], 50 to 500 nM.
On to `CN1CCN(c2ccc(-c3cc(/C=C/c4ccc(O)cc4)[nH]n3)cc2)CC1` [Entry 51, 4-((E)-2-{3-[4-(4-methylpiperazin-1-yl)phenyl]-1H-pyrazol-5-yl}ethenyl)phenol], for which the IC50 in assay [1] is greater than 5000 nM; in assay [2], greater than 5000 nM; in assay [3], less than 50 nM; in assay [4] it was 50 to 500 nM.
As for `Cc1ccc(F)cc1NC(=O)Nc1ccc(-c2cc(-c3ccc(N4CCN(C)CC4)cc3)[nH]n2)cc1` [Entry 53, N-(5-fluoro-2-methylphenyl)-N′-(4-{5-[4-(4-methylpiperazin-1-yl)phenyl]-1H-pyrazol-3-yl}phenyl)urea], the IC50 was greater than 5000 nM in assay [1], greater than 5000 nM in assay [2], 50 to 500 nM in assay [3] and 50 to 500 nM in assay [4].
Turning to `Oc1ccc(/C=C/c2cc(-c3ccccc3)n[nH]2)cc1` [Entry 54, 4-[(E)-2-(3-phenyl-1H-pyrazol-5-yl)ethenyl]phenol], the IC50 in assay [1] was greater than 5000 nM; in assay [2], greater than 5000 nM; in assay [3], less than 50 nM; in assay [4], 50 to 500 nM.
As to `COc1cc(/C=C/c2cc(-c3ccccc3)[nH]n2)ccc1O` [Entry 55, 2-(methyloxy)-4-[(E)-2-(5-phenyl-1H-pyrazol-3-yl)ethenyl]phenol], the IC50 in assay [1] was greater than 5000 nM; in assay [2] it was greater than 5000 nM; in assay [3], 50 to 500 nM; in assay [4], 50 to 500 nM.
Consider `Oc1ccc(/C=C/c2cc(-c3ccc4ccccc4c3)[nH]n2)cc1` [Entry 56, 4-[(E)-2-(5-naphthalen-2-yl-1H-pyrazol-3-yl)ethenyl]phenol], for which the IC50 is greater than 5000 nM in assay [1], greater than 5000 nM in assay [2], 50 to 500 nM in assay [3] and 50 to 500 nM in assay [4].
Take `Oc1ccc(/C=C/c2cc(-c3ccccc3F)[nH]n2)cc1` [Entry 57, 4-{(E)-2-[5-(2-fluorophenyl)-1H-pyrazol-3-yl]ethenyl}phenol]: the concentration for half-maximal inhibition (IC50) in assay [1] was greater than 5000 nM; in assay [2], greater than 5000 nM; in assay [3] it was 50 to 500 nM; in assay [4], 50 to 500 nM.
Consider `CN1CCN(c2cccc(-c3cc(/C=C/c4ccc(O)cc4)[nH]n3)c2)CC1` [Entry 58, 4-((E)-2-{3-[3-(4-methylpiperazin-1-yl)phenyl]-1H-pyrazol-5-yl}ethenyl)phenol], for which the half-maximal inhibitory concentration (IC50) was greater than 5000 nM in assay [1], greater than 5000 nM in assay [2], 50 to 500 nM in assay [3] and 50 to 500 nM in assay [4].
Consider `COc1cc(/C=C/c2cc(/C=C/c3ccc(F)cc3F)n[nH]2)ccc1O` [Entry 59, 4-((E)-2-{3-[(E)-2-(2,4-difluorophenyl)ethenyl]-1H-pyrazol-5-yl}ethenyl)-2-(methyloxy)phenol], for which the IC50 is greater than 5000 nM in assay [1], greater than 5000 nM in assay [2], less than 50 nM in assay [3] and 50 to 500 nM in assay [4].
For `Oc1ccc(/C=C/c2cc(-c3ccc(F)cc3)[nH]n2)cc1` [Entry 60, 4-{(E)-2-[5-(4-fluorophenyl)-1H-pyrazol-3-yl]ethenyl}phenol], the IC50 in assay [1] is greater than 5000 nM; in assay [2], greater than 5000 nM; in assay [3], less than 50 nM; in assay [4] it was 50 to 500 nM.
Consider `Oc1ccc(/C=C/c2cc(-c3ccc(Cl)cc3)n[nH]2)cc1` [Entry 61, 4-{(E)-2-[3-(4-chlorophenyl)-1H-pyrazol-5-yl]ethenyl}phenol], for which the IC50 is greater than 5000 nM in assay [1], greater than 5000 nM in assay [2], 50 to 500 nM in assay [3] and 500 to 5000 nM in assay [4].
Regarding `O=C(Nc1ccccc1)Nc1ccc(-c2cc(-c3ccccc3)n[nH]2)cc1` [Entry 76, N-phenyl-N′-[4-(3-phenyl-1H-pyrazol-5-yl)phenyl]urea], the IC50 was greater than 5000 nM in assay [1], greater than 5000 nM in assay [2], 500 to 5000 nM in assay [3] and 500 to 5000 nM in assay [4].
